According to paper PMC6270821, “ROS-Mediated Cytotoxic Effect of Copper(II) Hydrazone Complexes against Human Glioma Cells” (Molecules, 2014):

Key:
[1] = tested on: EB-CT-DNA; test: Competitive binding with EB bound to CT-DNA (fluorescence); parameters: species or system calf; details: for apparent binding constant Kapp (EB-CT-DNA): KEB 1.0 × 10^7 M^−1, [EB] = 10 µM; for number of binding sites n (EB-CT-DNA): Scatchard equation; for Stern-Volmer quenching constant Ksv (EB-CT-DNA) / binding constant K (EB-CT-DNA, Scatchard) / hypochromism in the EB-CT-DNA emission band at 602 nm: Tris-HCl pH 7.20, 25 °C; for hypochromism in the EB-CT-DNA emission band at 602 nm: complex up to 100 µM
Procedure: Steady-state competitive binding experiments using complexes 1 and 2were undertaken to get further proof for the binding of the complexes to DNA. The technique is based on the decrease of EB fluorescence resulting from the competitive displacement of EB from a DNA groove by a compound that competes for the same site.
The quenching data were analyzed by the Stern-Volmer equation: F0/F = Ksv[Q] + 1 (2) where F0 is the emission intensity in the absence of quencher, F is the emission intensity in the presence of quencher, Ksv is the quenching constant, and [Q] is the quencher concentration. The Ksv value is obtained as a slope from the plot of F0/F vs. [Q] [34].
The apparent binding constants (Kapp) were calculated from Equation (3): KEB [EB] = Kapp [complex] (3) where KEB is 1.0 × 10^7 M^−1, [EB] = 10 µM, and [complex] is the complex concentration when the fluorescence intensity of EB is 50%. This value is obtained from the plot F0/F vs. [complex] when F0/F = 2.
The binding constants (K) were calculated by the Scatchard Equation (4) (see Figure 6): log[(F0 − F)/F] = logK + nlog[Q] (4) where F0 and F are the fluorescence intensities of EB in the absence and presence of compound; [Q] is the compound concentration; K is the binding constant of compound with EB and n is the number of binding sites. K is the antilog of the intercept and n is the slope obtained from the plot of log[(F0 − F)/F] vs. […].
The affinity of the complexes for DNA was evaluated by a fluorescence technique using ethidium bromide (EB) bound to CT-DNA (EB-CT-DNA) solution in Tris-HCl buffer (pH = 7.20). EB is a planar cationic dye which is widely used as a sensitive fluorescence probe for native DNA. EB emits intense fluorescent light in the presence of DNA due to its strong intercalation between the adjacent DNA base-pairs. The changes in the fluorescence intensity at 602 nm (excitation at 545 nm) of EB-CT-DNA were measured with respect to the concentration of the copper(II) complexes. In fact, when it is removed, EB is non-emissive in Tris-HCl buffer solution (pH = 7.20), due to fluorescence quenching of the free EB by solvent molecules.

[2] = tested on: T98 (p53 mutant glioblastoma multiforme) cells; test: MTT cytotoxicity assay, T98 cells; type: cell-based, human; details: for IC50: MTT, 48 h treatment; for selectivity index (SI = IC50MRC5/IC50tumor cell), T98: T98 vs MRC5
Procedure: The in vitro cytotoxic effects of H2AcMe, H2BzMe and complexes 1 and 2 against wild type p53 U87 and mutant p53 T98 glioblastoma cells and against MRC-5 fibroblasts cells were tested using cisplatin as a positive control. To determine the IC50 (concentration that inhibits 50% of cell survival) values the cytotoxic effects were quantified using the 3-(4,5-dimethyl-2-thioazolyl)-2,5-diphenyl tetrazolium bromide (MTT) colorimetric assay. All tested compounds were cytotoxic against both glioma cell lines in a dose-dependent way. The IC50 values (see Table 1) were found in the micromolar range. Despite their cytotoxic activity, all compounds were less toxic to fibroblasts cells than cisplatin. CuCl2 evoked only mild cytotoxicity in all cell lineages with IC50 higher than 100 µM.
U87 (p53 wild-type glioblastoma multiforme) and T98 (p53 mutant glioblastoma multiforme) malignant human tumor cells and MRC5 (Human Fetal Lung Fibroblast) cells were obtained from the American Type Culture Collection (ATCC, Manassas, VA, USA). Cell lines were grown as monolayer in Dulbecco’s Modified Eagle’s Medium (DMEM, Gibco, Rockville, MD, USA), supplemented with 10% fetal bovine serum (Cultilab, Campinas, São Paulo, Brazil) and antibiotics (50 U/mL penicillin/50 […] streptomycin), in a humidified atmosphere air/CO2 (95%/5%) at 37 °C. Cells 80% confluents were used in all experiments. For all experiments, cells were seeded in 96-well plates, at a density of 1000 cells/well. After 24 h incubation cells were treated.
To determine the IC50 values the cytotoxic effects were quantified using the 3-(4,5-dimethyl-2-thioazolyl)-2,5-diphenyltetrazolium bromide (MTT) colorimetric assay. Briefly, cells were treated with increasing concentrations (10^−12, 10^−11, 10^−10, 10^−9, 10^−8, 10^−7, 10^−6, 10^−5, 10^−4 mol·L^−1) of either cisplatin (positive control) or test compounds (H2AcMe, H2BzMe, 1 and 2). The compounds were previously dissolved in dimethyl sulfoxide (DMSO) and the final concentrations were adjusted in DMEM in such manner that the final DMSO concentration was lower than 0.5%. Following 48 h treatment, MTT reagent was added to each well. Following another 4 h of incubation at 37 °C, DMSO was added to each well to dissolve formazan precipitate and absorbance was measured at 570 nm. Tests using DMSO (0.5% in DMEM) as negative control were carried out in parallel. All tests were performed in quadruplicates with full agreement between the results. Statistical analysis was carried out by the unpaired, one-tailed Student’s t testing using a p value of 0.05. A value of p < 0.05 was considered significant.

[3] = tested on: pUC 19 plasmid DNA; test: Agarose gel electrophoresis of supercoiled plasmid DNA; parameters: species or system Escherichia coli; details: 100 µM, Tris-HCl pH 7.20, 37 °C, 24 h
Procedure: Studies of interactions between the compounds under study and supercoiled plasmid DNA by agarose gel electrophoresis were carried out. Thus, 136 ng of purified plasmid DNA-pUC 19 from Escherichia coli (Sigma-Aldrich Brasil, São Paulo, Brazil) were incubated with compounds 1, 2 and cisplatin at 100 µM in Tris-HCl buffer (NaCl 50 mM, Tris-HCl 5 mM, pH = 7.20). The mixture was incubated at 37 °C for 24 h. Thereafter, the reactions were quenched by adding 5 µL of the loading buffer solution (50 mM Tris, pH 7.20, 0.01% bromophenol blue, 50% glycerol, and 250 mM EDTA). The samples were analyzed by 1% agarose gel electrophoresis in 0.5 × TBE buffer for 1 h 40 min at […]. The gel was stained after electrophoresis in 0.5× TBE buffer with 2.5 µg·mL^−1 ethidium bromide for 15 min and visualized by UV light.

CC(=O)NN=C(C)c1ccccn1.[Cl][Cu][Cl] [compound 1, [dichloro(2-acetylpyridineacetyl-hydrazone)copper(II)]]
apparent binding constant Kapp (EB-CT-DNA) [1]: 234000 M⁻¹ | number of binding sites n (EB-CT-DNA) [1]: 1.04 ± 0.01 | Stern-Volmer quenching constant Ksv (EB-CT-DNA) [1]: (2.35 ± 0.03) × 10^3 M^−1 | binding constant K (EB-CT-DNA, Scatchard) [1]: (0.35 ± 0.01) × 10^4 M^−1 | hypochromism in the EB-CT-DNA emission band at 602 nm [1]: up to 24% | IC50 [2]: 5.08 ± 0.41 µM | selectivity index (SI = IC50MRC5/IC50tumor cell), T98 [2]: 4.42 | alteration in the electrophoretic mobility of pUC 19 plasmid DNA [3]: no alteration in the electrophoretic mobility

CC(=O)NN=C(c1ccccc1)c1ccccn1.[Cl][Cu][Cl] [compound 2, [dichloro(2-benzoylpyridineacetylhydrazone)copper(II)]]
apparent binding constant Kapp (EB-CT-DNA) [1]: 207000 M⁻¹ | number of binding sites n (EB-CT-DNA) [1]: 0.81 ± 0.02 | Stern-Volmer quenching constant Ksv (EB-CT-DNA) [1]: (2.05 ± 0.03) × 10^3 M^−1 | binding constant K (EB-CT-DNA, Scatchard) [1]: (0.38 ± 0.01) × 10^3 M^−1 | hypochromism in the EB-CT-DNA emission band at 602 nm [1]: ≤ 20% | IC50 [2]: 29.4 ± 7.06 µM | selectivity index (SI = IC50MRC5/IC50tumor cell), T98 [2]: 1.68 | alteration in the electrophoretic mobility of pUC 19 plasmid DNA [3]: no alteration in the electrophoretic mobility
